Assay type in all cases: ADME, organism-based
The nature of series [1]: Terminal disposition rate in liver transplant patient with end-stage liver disease at 200 mg/kg, po bid. Details: dose 200 mg/kg, route oral. The conditions noted are these: human, in vivo, read-out: Activity (converted).
Series [2] concerns Homo sapiens. The experiment in a line: Plasma concentration in liver transplant patient with end-stage liver disease at 200 mg/kg, po bid. Details: dose 200 mg/kg, route oral. The conditions noted are these: in vivo.
Series [3] in a line: Mean residence time in liver transplant patient with end-stage liver disease at 200 mg/kg, po bid. The conditions noted are these: human, in vivo. Set-up: dose 200 mg/kg, route oral.
Series [4] can be described thus: AUC (0 to infinity) in liver transplant patient with end-stage liver disease at 200 mg/kg, po bid. Details: time infinity, dose 200 mg/kg, route oral. The conditions noted are these: human, in vivo.
Series [5] has as its system Homo sapiens. Put plainly: AUMC (0 to infinity) in liver transplant patient with end-stage liver disease at 200 mg/kg, po bid. Set-up: dose 200 mg/kg, route oral. The conditions noted are these: in vivo.
Series [6] in a line: Cmax in liver transplant patient with end-stage liver disease at 200 mg/kg, po bid. Details: dose 200 mg/kg, route oral. The conditions noted are these: human, in vivo.
Series [7] in a line: Tmax in liver transplant patient with end-stage liver disease at 200 mg/kg, po bid. As to conditions: human, in vivo. Set-up: dose 200 mg/kg, route oral.
The test system of series [8] is Homo sapiens. Put plainly: Clast in liver transplant patient with end-stage liver disease at 200 mg/kg, po bid. Details: dose 200 mg/kg, route oral. As to conditions: in vivo.
A short description of series [9]: Volume of distribution at steady state with respect to bioavailability in liver transplant patient with end-stage liver disease at 200 mg/kg, po bid. The conditions noted are these: human, in vivo, read-out: Vc/F.
Series [10] in a line: Terminal half life in liver transplant patient with end-stage liver disease at 200 mg/kg, po bid. The conditions noted are these: human, in vivo, read-out: beta t1/2 (converted). Details: dose 200 mg/kg, route oral.

With `C[C@@H](c1ncncc1F)[C@](O)(Cn1cncn1)c1ccc(F)cc1F` [VORICONAZOLE], the k el in series [1] was 1.67e-05 s⁻¹. In the series with Homo sapiens [2], this compound came in with a Cp of 1000 ng/mL. This compound also yielded an MRT in [3] of 78.2 h. Besides, the AUC(0-inf) in series [4] came to 25900 ng·h/mL. In the series with Homo sapiens [5], this compound returned an AUMC of 2557.5 hr.hr.ug/ml. This compound also returned a peak concentration (Cmax) in series [6] of 2900 ng/mL. Moreover, the Tmax in series [7] was determined as 1.8 h. This compound also returned a Clast in the series with Homo sapiens [8] of 1600 ng/mL. The Vd/F in [9] came to 94.5 L. Further, the half-life in [10] is 15 h.

One may read the MRT as the average time that molecules of a dose stay in the body. By AUC(0-inf) is commonly meant the area under the concentration-time curve extrapolated to infinity. High values mean more exposure, low ones less exposure. The term Cmax denotes the peak of the concentration-time curve. As a reminder, the Tmax is the time at which the peak concentration occurs.
